Assay results reported in US20240099214A1, “PLANT DEFENCE GENE EXPRESSION” (UPL Corporation Limited, priority 2021, published 2024).
“Also recorded” adds a separate entry of the source.

Legend:
[1] = test system: Regulator of gene silencing (gene 14, AY642285.1); experiment: qRT-PCR expression of gene 14 in tomato leaves; type: in vivo, Tomato ecotype corbarino; set-up: key to RQ1 / RQ2 / RQ3 / RQ mean: relative expression normalized to a-tubulin housekeeping gene; settings: for gene 14 expression compared to TSWV treatment: 48 hr; for gene 14 expression: 72 hr
Protocol: (§1) Tomato ecotype “corbarino” reported to be susceptible to TSWV infection was used in the experiment. Plants were grown in pots in a climatic chamber with a photoperiod of 16/8 hour at 25° C.
(§2) The viral strain (TSWV PV PV-0393) was utilized in the experiment. The virus was mechanically inoculated and propagated on tomato “corbarino”. The inoculum was prepared in an ice-cooled mortar grounding 1 gr of infected tomato tissue in 10 ml of Na-phosphate buffer 0.01M. The fresh prepared inoculum was stored in ice before use. Tomato plants at BBCH16 were dusted with Carborundum 600 mesh and selected leaves were rubbed with some droplets of inoculum. After 5 min. plants were sprayed with sterile water to remove the excess of inoculum and preserve the cell turgor.
(§3) Four treatments were compared: i) Mock inoculated; ii) TSWV; iii) 0.25% Laminarin; iv) 0.25% Laminarin+TSWV. In the last treatment the virus was inoculated 24 hrs after the laminarin application.
(§4) Total RNA was extracted from systemic infected tomato leaves by using the Quick-RNA Plant Kit (Zymo Research) following the manufacturer instructions. The extractions were carried out using three plants after 12 h, 24 h, 48 h, 72 h, 7 days after inoculation. Leaves were instantly frozen in liquid nitrogen after cutting to avoid any deterioration of the sample as well as any defense reaction. The RNA concentration was quantified by measuring the absorbance at 260 nm using a Nanodrop 2000 (Thermofisher). The purity of all of the RNA samples was assessed at an absorbance ratio of OD260/280 and OD260/230, while its structural integrity was checked by agarose gel electrophoresis. Only high-quality RNA with OD 260/280 and OD 260/230>2 was used for subsequent steps. Single-stranded cDNA was synthesized from 1 μg of total RNA using an iScript™ Select cDNA Synthesis Kit and random hexamers as primers (Bio-Rad, Milan, Italy), according to the manufacturer's instructions. Three biological replicates were created from the 3 leaves collected to test 15 genes. Alpha tubulin was used as reference gene.
(§5) qPCR reactions were performed with BioRad (Applied Biosystems, Foster City, CA, USA) using SYBR R Green. Each reaction was performed in 20 μl containing 10 μl of 2× Power SYBR Green PCR Master Mix (Life Technologies), 0.2-0.3 μM primers and cDNA samples diluted 1:20. Each qPCR reaction was performed in triplicate. Reactions were run using the cycling parameter described previously (Reid et al., 2006) and the qPCR data were analyzed by the Ct method (Pfaffl, 2001). In order to analyze the qPCR data, a-tubulin gene was used as housekeeping to determine the relative expression level of the other genes analyzed in this work. For the determination of qPCR efficiency of each primer pairs, a standard curve was performed using the following cDNA dilutions: 1:4, 1:16, 1:64; 1:256 and 1:1024. Every measurement was made in triplicate. The corresponding qPCR efficiencies (E) were calculated for every primer pair with the software 7300 System SDS software (Applied Biosystems, Foster City, CA, USA) according to the equation E=(10−1/slope−1)×100 (Rutledge and Stewart, 2008).
(§6) The significance of the differences between the gene expressions levels were compared by one-way ANOVA (p=0.01) and the means were separated by Tukey post-hoc test using SPSS ver.26 ([…]).

[2] = test system: Pathogenesis-related protein P4 (gene 11, M69247.1); experiment: qRT-PCR expression of gene 11 in tomato leaves; type: in vivo, Tomato ecotype corbarino; set-up: key: relative expression normalized to a-tubulin housekeeping gene
Protocol: as §1, §2, §3, §4, §5, §6

[3] = Gene_14, 12 hr, treatment Laminarin
[4] = Gene_14, 12 hr, treatment Laminarin + virus
[5] = Gene_14, 24 hr, treatment Laminarin
[6] = Gene_14, 24 hr, treatment Laminarin + virus
[7] = Gene_14, 48 hr, treatment Laminarin
[8] = Gene_14, 48 hr, treatment Laminarin + virus
[9] = Gene_14, 72 hr, treatment Laminarin
[10] = Gene_14, 72 hr, treatment Laminarin + virus

Substance: laminarin
- gene 14 expression compared to TSWV treatment ([1]; 0.25% laminarin + TSWV inoculated 24 hrs later): inverted
- gene 14 expression compared to TSWV treatment ([1]; 0.25% laminarin alone): inverted
- gene 14 expression ([1]; Laminarin alone): no clear overexpression; also recorded: down regulation
- gene 14 expression ([1]; laminarin with TSWV): down regulation
- RQ1 [1, 3]: 12.337
- RQ2 [1, 3]: 10.845
- RQ3 [1, 3]: 11.390
- RQ mean [1, 3]: 11.524
- RQ1 [1, 4]: 14.800
- RQ2 [1, 4]: 14.769
- RQ3 [1, 4]: 10.304
- RQ mean [1, 4]: 13.291
- RQ1 [1, 5]: 15.741
- RQ2 [1, 5]: 11.640
- RQ3 [1, 5]: 12.032
- RQ mean [1, 5]: 13.138
- RQ1 [1, 6]: 10.995
- RQ2 [1, 6]: 12.080
- RQ3 [1, 6]: 12.197
- RQ mean [1, 6]: 11.758
- RQ1 [1, 7]: 0.3028
- RQ2 [1, 7]: 0.7177
- RQ3 [1, 7]: 0.5353
- RQ mean [1, 7]: 0.5186
- RQ1 [1, 8]: 0.5979
- RQ2 [1, 8]: 0.3384
- RQ3 [1, 8]: 0.4902
- RQ mean [1, 8]: 0.4755
- RQ1 [1, 9]: 0.2805
- RQ2 [1, 9]: 0.3706
- RQ3 [1, 9]: 0.3064
- RQ mean [1, 9]: 0.3192
- RQ1 [1, 10]: 0.5857
- RQ2 [1, 10]: 0.5072
- RQ3 [1, 10]: 0.2692
- RQ mean [1, 10]: 0.4540
- RQ1 ([2]; 12 hr, Laminarin + virus): 12.101
- RQ2 ([2]; 12 hr, Laminarin + virus): 11.431
- RQ3 ([2]; 12 hr, Laminarin + virus): 10.206
- RQ mean ([2]; 12 hr, Laminarin + virus): 11.246
- RQ1 ([2]; 12 hr, Laminarin alone): 0.9441
- RQ2 ([2]; 12 hr, Laminarin alone): 0.8925
- RQ3 ([2]; 12 hr, Laminarin alone): 11.302
- RQ mean ([2]; 12 hr, Laminarin alone): 0.9889
- RQ1 ([2]; 24 hr, Laminarin + virus): 13.862
- RQ2 ([2]; 24 hr, Laminarin + virus): 11.424
- RQ3 ([2]; 24 hr, Laminarin + virus): 11.236
- RQ mean ([2]; 24 hr, Laminarin + virus): 12.174
- RQ1 ([2]; 24 hr, Laminarin alone): 17.183
- RQ2 ([2]; 24 hr, Laminarin alone): 12.595
- RQ3 ([2]; 24 hr, Laminarin alone): 13.075
- RQ mean ([2]; 24 hr, Laminarin alone): 14.284
- RQ1 ([2]; 48 hr, Laminarin + virus): 28.058
- RQ2 ([2]; 48 hr, Laminarin + virus): 20.254
- RQ3 ([2]; 48 hr, Laminarin + virus): 34.812
- RQ mean ([2]; 48 hr, Laminarin + virus): 27.708
- RQ1 ([2]; 48 hr, Laminarin alone): 34.926
- RQ2 ([2]; 48 hr, Laminarin alone): 33.905
- RQ3 ([2]; 48 hr, Laminarin alone): 24.218
- RQ mean ([2]; 48 hr, Laminarin alone): 31.016
- RQ1 ([2]; 72 hr, Laminarin + virus): 80.672
- RQ2 ([2]; 72 hr, Laminarin + virus): 76.025
- RQ3 ([2]; 72 hr, Laminarin + virus): 53.346
- RQ mean ([2]; 72 hr, Laminarin + virus): 70.014
- RQ1 ([2]; 72 hr, Laminarin alone): 47.958
- RQ2 ([2]; 72 hr, Laminarin alone): 51.518
- RQ3 ([2]; 72 hr, Laminarin alone): 48.365
- RQ mean ([2]; 72 hr, Laminarin alone): 49.280
